For the experiment, the target named is T1, human TRPM8 (Homo sapiens, UniProt Q7Z2W7).
T1 construct: expressed in transfected cells
The experiment can be described thus: Automated patch clamp (IonFlux 16) of menthol-evoked TRPM8 currents in HEK293 cells stably expressing human TRPM8. It is filed as cell-based. As for the experimental part:
HEK293 cells, stably expressing human TRPM8 (GenBank number NM_024080), were cultured in T75 tissue culture flasks using Dulbecco’s modified Eagle medium (Euroclone, Pero, Italy), supplemented with 10% FBS (Euroclone, Pero, Italy) plus Geneticin (Sigma-Aldrich, St. Louis, MI, USA) 800 μg/mL at 37° C, in a humidified 5% CO2 atmosphere. The cells were maintained until they reached 70~80% confluency. Prior to use, the cells were washed twice with Ca^2+ and Mg^2+ free PBS (Euroclone, Pero, Italy), subsequently detached using Accutase (Euroclone, Pero, Italy), and kept in suspension using CHO-SFM-II medium (Gibco, by Thermo Fisher Scientific, Carlsbad, CA, USA). The cells were then resuspended in the external solution after a centrifugation at 1000 rpm for 2 min. Single-cells suspension, with a final concentration of 3–5 million cells/mL, was required for the automated patch clamp electrophysiology procedure.
We performed automated patch clamp recordings by using the IonFlux 16 system (Fluxion Biosciences, Alameda, CA, USA). The procedure includes four automated phases—prime, trap, break, and data acquisition—in the whole-cells voltage clamp. The cells were voltage clamped at a holding potential of −60 mV, stepped to −100 mV, ramped to +100 mV in 200 ms, and finally stepped back to −60 mV. Voltage command was executed every 5 s, and currents were recorded with a sampling rate of 5 kHz. […] The interval range between each application was 90 s, and intervals included washing cells with an external solution-containing vehicle. However, the duration of each application was adjusted based on each drug’s lipophilicity and kinetic of inhibition. For leakage subtraction, leakage was measured by applying a short 20 mV pulse (typically from −80 mV to −100 mV) at the beginning of each sweep to measure the current difference. By assuming linear leakage and subtracting proportional currents from each of the different voltage command segments, the software performs automatic leakage subtraction. […] The extracellular solution contained 140 mM NaCl, 4 mM KCl, 1 mM MgCl2, 10 mM glucose, and 10 mM HEPES, pH 7.4 with NaOH and 310 mOsm. We removed Ca^2+ from the external solution to avoid the Ca^2+-dependent desensitization of TRPM8. The intracellular solution contained the following (mM): 60 CsCl, 70 CsF, 5 Na2ATP, 10 HEPES, and 10 EGTA, pH 7.2 with CSOH and 295 mOsm. All recordings were performed at a temperature of 20 ± 1 °C.
All compounds were obtained from Sigma-Aldrich. Stock solutions were prepared in 50 mM of dimethyl sulfoxide (DMSO) and stored at −20° C.
The analysis of the data was carried out using the ‘data analyzer software’ (Data Analyzer v. 5.0 (beta), Fluxion Biosciences, Alameda, CA, USA), Microsoft Excel 365, and the Prism 9.0 software (GraphPad Software Inc., San Diego, CA, USA). The average current density of the last three recordings at +80 mV in each application period was used as the current amplitude.
IC50 and EC50 were calculated by fitting the four-parameter Hill equation using GraphPad Prism.
Four-parameter Hill equation: f(x)=Imin+(Imax−Imin/1+(C50/x)^h)
Data are expressed as the mean ± standard deviation (SD).
(In patch-clamp work, channel activity is measured electrically.)

Setting [1] is: HEK293; read-out: Average Percentage Inhibition at 10 µM.
Where [2] appears, read: read-out: IC50, inhibition of menthol-induced TRPM8 current.
Where [3] appears, read: at concentrations higher than 50 µM.
Setting [4] is: at concentrations higher than IC50, prolonged washing, data not shown.

Where two headings read alike, the source gives them in different places.

T1 sequence (Q7Z2W7 whole entry): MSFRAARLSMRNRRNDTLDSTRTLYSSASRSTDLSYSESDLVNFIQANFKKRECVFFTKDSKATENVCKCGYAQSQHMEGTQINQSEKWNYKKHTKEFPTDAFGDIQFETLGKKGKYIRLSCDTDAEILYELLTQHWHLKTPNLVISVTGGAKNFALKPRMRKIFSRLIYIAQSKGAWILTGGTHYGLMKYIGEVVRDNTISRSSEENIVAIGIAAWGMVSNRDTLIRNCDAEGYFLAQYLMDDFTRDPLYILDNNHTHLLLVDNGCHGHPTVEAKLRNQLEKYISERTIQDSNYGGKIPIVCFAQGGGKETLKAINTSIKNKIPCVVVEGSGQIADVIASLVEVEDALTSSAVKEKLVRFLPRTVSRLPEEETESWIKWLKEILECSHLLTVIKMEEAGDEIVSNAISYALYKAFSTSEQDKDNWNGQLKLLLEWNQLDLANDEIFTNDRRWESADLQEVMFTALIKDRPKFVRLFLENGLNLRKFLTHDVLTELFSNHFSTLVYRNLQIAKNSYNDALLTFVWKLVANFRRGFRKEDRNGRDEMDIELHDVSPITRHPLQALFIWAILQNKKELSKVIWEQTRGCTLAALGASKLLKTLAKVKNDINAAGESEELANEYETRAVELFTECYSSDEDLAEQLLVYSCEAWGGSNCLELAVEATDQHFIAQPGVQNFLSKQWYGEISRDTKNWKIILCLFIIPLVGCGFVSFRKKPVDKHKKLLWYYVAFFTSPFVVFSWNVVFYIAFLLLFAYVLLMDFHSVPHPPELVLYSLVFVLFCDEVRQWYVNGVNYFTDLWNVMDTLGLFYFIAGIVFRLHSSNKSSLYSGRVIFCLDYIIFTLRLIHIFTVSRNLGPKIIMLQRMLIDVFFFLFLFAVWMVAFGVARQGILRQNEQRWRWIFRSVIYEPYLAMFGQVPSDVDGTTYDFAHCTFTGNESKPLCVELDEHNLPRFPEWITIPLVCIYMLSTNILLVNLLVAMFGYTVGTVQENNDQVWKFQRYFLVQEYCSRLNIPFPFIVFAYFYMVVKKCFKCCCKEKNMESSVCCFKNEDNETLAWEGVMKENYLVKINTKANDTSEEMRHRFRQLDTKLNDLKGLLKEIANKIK

A word on the inhibition: it is the relative decrease from the control value, in per cent. With `COc1ccccc1OCC(O)CN1CCN(CC(=O)Nc2c(C)cccc2C)CC1` (stereo not drawn) [Ranolazine, ranolazine], the inhibition at 10 µM under setting [1] is 0%.

As for `CC(C)(C)NCC(O)COc1cccc2c1CC(O)C(O)C2` (stereo not drawn) [Nadolol, nadolol], the inhibition at 10 µM under setting [1] is 0%.

Consider `NCC1(CC(=O)O)CCCCC1` [Gabapentin, gabapentin], for which, under “HEK293, read-out: Average Percentage Inhibition at 10 µM”, the inhibition at 10 µM was 0%.

Consider `CC(C)NCC(O)COc1ccc(CC(N)=O)cc1` (stereo not drawn) [Atenolol, atenolol], for which the inhibition at 10 µM under setting [1] is 0%.

Turning to `NC(=O)c1cn(Cc2c(F)cccc2F)nn1` [Rufinamide, rufinamide], the inhibition at 10 µM under setting [1] is 0%.

Turning to `NC(=O)N1c2ccccc2C=Cc2ccccc21` [Carbamazepine, carbamazepine], the inhibition at 10 µM under setting [1] turned out to be 0%.

As a reminder, the IC50 is the concentration that gives 50% inhibition. Turning to `CC(C)NCC(O)COc1cccc2ccccc12` (stereo not drawn) [Propranolol, propranolol], the inhibition at 10 µM under setting [1] was found to be 12%. Moreover, the IC50 under setting [2] was determined as 45 ± 7 µM. The “Blocking effect on TRPM8 menthol-evoked currents” value (“Blocking effect” for short) (β-blocker screen) was “showed a blocking effect”.

`Nc1nnc(-c2cccc(Cl)c2Cl)c(N)n1` [Lamotrigine, lamotrigine]: the inhibition at 10 µM under setting [1] was 0%.

In the case of `CCCC(=O)Nc1ccc(OCC(O)CNC(C)C)c(C(C)=O)c1` (stereo not drawn) [Acebutolol, acebutolol], the inhibition at 10 µM under setting [1] amounted to 0%.

`Cc1cccc(COc2ccccc2C(=O)N(CCCN)Cc2cccs2)c1.Cl` [AMTB, N-(3-Aminopropyl)-2-[(3-methylphenyl)methoxy]-N-(2-thienylmethyl)benzamide hydrochloride]: the “Block of menthol-activated currents” value (1 µM AMTB) is listed as “fully blocked”.

For `O=C(NCC1CCCCN1)c1cc(OCC(F)(F)F)ccc1OCC(F)(F)F` (stereo not drawn) [Flecainide, flecainide], under setting [1], the inhibition at 10 µM was 0%. For the same compound, the “Block of outward TRPM8 currents induced by menthol” value (from here on “Block … by menthol”) under setting [3] is recorded as “partial block”.

As to `NC(=O)N1c2ccccc2CC(=O)c2ccccc21` [Oxcarbazepine, oxcarbazepine], the inhibition at 10 µM under setting [1] came out at 0%.

As for `OC(CNCC(O)C1CCc2cc(F)ccc2O1)C1CCc2cc(F)ccc2O1` (stereo not drawn) [Nebivolol, nebivolol], under setting [1], the inhibition at 10 µM turned out to be 100%. The “Reversibility of the inhibiting effect on washing” value under setting [4] is recorded as “irreversible inhibiting effect”. For the setting “electrophysiological data”, the “Inhibitory effect of nebivolol compared with carvedilol” value is on record as “ten times stronger”. The IC50 under setting [2] stood at 0.97 ± 0.15 µM. Further, the “Blocking effect” value (β-blocker screen) was “showed a blocking effect”.

Consider `CCCCNc1ccc(C(=O)OCCN(C)C)cc1` [Tetracaine, tetracaine], for which, under setting [1], the inhibition at 10 µM was 0%.

Take `COCCc1ccc(OCC(O)CNC(C)C)cc1` (stereo not drawn) [Metoprolol, metoprolol]: the inhibition at 10 µM under setting [1] was found to be 0%.

Consider `O=C1NC(=O)C(c2ccccc2)(c2ccccc2)N1` [Phenytoin, phenytoin], for which, under setting [1], the inhibition at 10 µM turned out to be 0%. Also, under setting [3], the “Block … by menthol” value was “partial block”.

Consider `COc1ccccc1OCCNCC(O)COc1cccc2[nH]c3ccccc3c12` (stereo not drawn) [Carvedilol, carvedilol], for which the inhibition at 10 µM under setting [1] was 57%. Under setting [4], the “Reversibility of the inhibiting effect on washing” value is on record as “irreversible inhibiting effect”. The IC50 under setting [2] is 9.1 ± 0.6 µM. The “Blocking effect” value (β-blocker screen) is “showed a blocking effect”.

Take `Cc1cccc(C)c1OCC(C)N` (stereo not drawn) [Mexiletine, mexiletine]: the inhibition at 10 µM under setting [1] was 0%.

As to `Nc1nc2ccc(OC(F)(F)F)cc2s1` [Riluzole, riluzole], the inhibition at 10 µM under setting [1] stood at 0%.

For `CCCNCC(O)COc1ccccc1C(=O)CCc1ccccc1` (stereo not drawn) [Propafenone, propafenone], under setting [1], the inhibition at 10 µM worked out at 26%. Further, the “Block … by menthol” value (below 50 µM) is given as “significant blocking capacity”. Further, the IC50 under setting [2] was 16.8 ± 5 µM.

Values taken from paper PMC9609861, “Nebivolol as a Potent TRPM8 Channel Blocker: A Drug-Screening Approach through Automated Patch Clamping and Ligand-Based Virtual Screening” (Membranes, 2022).
